What follows are compounds tested against T1, human P2X3 receptor (Homo sapiens, UniProt P56373) (assay: Intracellular calcium measurement to assess antagonist activity at human P2X3 receptors (hP2X3 CHO), photina luminescence). Conditions: column 2), CHO cells, agonist α,β-methylene-ATP at EC50.
T1 sequence (P56373 1-397): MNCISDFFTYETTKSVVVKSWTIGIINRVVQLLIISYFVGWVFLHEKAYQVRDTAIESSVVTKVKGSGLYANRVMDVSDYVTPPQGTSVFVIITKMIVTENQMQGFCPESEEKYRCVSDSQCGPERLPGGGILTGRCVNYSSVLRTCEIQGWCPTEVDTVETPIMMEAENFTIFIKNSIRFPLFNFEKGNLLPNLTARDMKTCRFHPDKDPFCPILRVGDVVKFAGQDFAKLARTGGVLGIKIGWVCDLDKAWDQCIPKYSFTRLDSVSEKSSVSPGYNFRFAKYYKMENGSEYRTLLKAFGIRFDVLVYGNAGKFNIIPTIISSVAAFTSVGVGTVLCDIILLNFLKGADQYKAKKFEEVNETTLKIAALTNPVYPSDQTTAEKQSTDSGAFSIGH
Type: cell-based
Set-up: expressed in transfected cells; host or cells: Chinese hamster ovary (CHO) cells
Procedure: 2) Intracellular Calcium Measurement to Assess Antagonist Activity at Human P2X3 Receptors (hP2X3 CHO)
The determination of antagonistic activity at the P2X3 receptor of the compounds of the invention was performed by use of a recombinant cell line. This cell line derives originally from the Chinese hamster ovary (CHO) cell line (Tjio J. H.; Puck T. T., 1958, J. Exp. Med. 108: 259-271). The cell line is stably transfected with the human P2X3 receptor and a calcium-sensitive photoprotein, mitochondrial photina, which, after reconstitution with the cofactor coelenterazine, emits light in dependence of calcium binding [Bovolenta S, Foti M, Lohmer S, Corazza S., J Biomol Screen. 2007 August; 12(5):694-704]. The strength of the photina luminescence signal corresponds to the level of receptor activation upon agonist binding. An inhibitor would decrease the signal depending on its potency and concentration. Bioluminescence was detected using a suitable luminometer [Milligan G, Marshall F, Rees S, Trends in Pharmacological Sciences 17,235-237 (1996)].
On the day before the assay, the cells were plated out in culture medium (DMEM/F12 (PAN, P04-41451), 10% FCS) in 384-well microtiter plates and kept in a cell incubator (96% humidity, 5% v/v CO2, […]). On the day of the assay medium was replaced by 2 mM Ca-tyrode buffer containing 5 μg/ml coelenterazine. Plates were incubated for 3 hours at 37° C. (96% humidity, 5% v/v CO2). […] The resulting light signal was measured immediately in the luminometer.

| IC50 [nM] | Compound |
| --- | --- |
| 155 | CCc1cc2n(CC(=O)Nc3ccc(F)cn3)c3c(c(=O)n2n1)CN(C(C)CO)C3=O (racemic) [Example 137, 2-{2-ethyl-6-[(±)-1-hydroxypropan-2-yl]-5,8-dioxo-5,6,7,8-tetrahydro-4H-pyrazolo[1,5-a]pyrrolo[3,4-d]pyrimidin-4-yl}-N-(5-fluoropyridin-2-yl)acetamide] |
| 57 | CC(C)N1Cc2c(n(CC(=O)Nc3ccc(F)cn3)c3cc([C@@H]4CCOC4)nn3c2=O)C1=O (single isomer, unassigned) [Example 280, 2-{5,8-dioxo-2-[oxolan-3-yl]-6-(propan-2-yl)-5,6,7,8-tetrahydro-4H-pyrazolo[1,5-a]pyrrolo[3,4-d]pyrimidin-4-yl}-N-(5-fluoropyridin-2-yl)acetamide] |
| 42 | CC(C)N1Cc2c(n(CC(=O)Nc3ccc(F)cn3)c3cc([C@H]4CCOC4)nn3c2=O)C1=O (single isomer, unassigned) [Example 281, 2-{5,8-dioxo-2-[oxolan-3-yl]-6-(propan-2-yl)-5,6,7,8-tetrahydro-4H-pyrazolo[1,5-a]pyrrolo[3,4-d]pyrimidin-4-yl}-N-(5-fluoropyridin-2-yl)acetamide] |
| 1400 | CC(C)N1Cc2c(n(CC(=O)Nc3ccc(F)cn3)c3cc(C(=O)O)nn3c2=O)C1=O [Example 84, 4-{2-[(5-Fluoropyridin-2-yl)amino]-2-oxoethyl}-5,8-dioxo-6-(propan-2-yl)-5,6,7,8-tetrahydro-4H-pyrazolo[1,5-a]pyrrolo[3,4-d]pyrimidine-2-carboxylic acid] |
| 1650 | CCc1cc2n(CC(=O)Nc3ccc(F)cn3)c3c(c(=O)n2n1)CN(C1CCN(C)CC1)C3=O [Example 87] |
| 143 | O=C(Cn1c2c(c(=O)n3nc(C(F)(F)F)cc13)CN(CCN1CCOCC1)C2=O)Nc1ccc(F)cn1 [Example 103] |
| 225 | O=C(Cn1c2c(c(=O)n3nc(Br)cc13)CN(CCN1CCOCC1)C2=O)Nc1ccc(F)cn1 [Example 111] |
| 113 | CCc1cc2n(CC(=O)Nc3ccc(F)cn3)c3c(c(=O)n2n1)CN(CC1CCC1)C3=O [Example 113] |
| 205 | CCc1cc2n(CC(=O)Nc3ccc(F)cn3)c3c(c(=O)n2n1)CN(CC1CN(C(=O)OC(C)(C)C)C1)C3=O [Example 115] |
| 585 | CCc1cc2n(CC(=O)Nc3ccc(F)cn3)c3c(c(=O)n2n1)CN(C1CN(C(=O)OC(C)(C)C)C1)C3=O [Example 116] |
| 131 | CCc1cc2n(CC(=O)Nc3ccc(F)cn3)c3c(c(=O)n2n1)CN(C1CCCOC1)C3=O (stereo not shown) [Example 118] |
| 470 | CCc1cc2n(CC(=O)Nc3ccc(F)cn3)c3c(c(=O)n2n1)CN(C1CCS(=O)(=O)CC1)C3=O [Example 119] |
| 94 | CCOC(=O)c1cc2n(CC(=O)Nc3ccc(F)cn3)c3c(c(=O)n2n1)CN(C1CCOCC1)C3=O [Example 122] |
| 21 | CCOC(=O)c1cc2n(CC(=O)Nc3ccc(F)cn3)c3c(c(=O)n2n1)CN(CCN1CCOCC1)C3=O [Example 123] |
| 10 | CCOC(=O)c1cc2n(CC(=O)Nc3ccc(F)cn3)c3c(c(=O)n2n1)CN(Cc1ccccn1)C3=O [Example 124] |
| 240 | Cc1cc2n(CC(=O)Nc3ccc(F)cn3)c3c(c(=O)n2n1)CN(CC1CCO1)C3=O (stereo not shown) [Example 125] |
| 57 | CCc1cc2n(CC(=O)Nc3ccc(F)cn3)c3c(c(=O)n2n1)CN(CC)C3=O [Example 126] |
| 43 | CCc1cc2n(CC(=O)Nc3ccc(F)cn3)c3c(c(=O)n2n1)CN(C)C3=O [Example 127] |
| 53 | O=C(Cn1c2c(c(=O)n3nc(-c4ccncc4)cc13)CN(Cc1ccc(F)cc1)C2=O)Nc1ccc(F)cn1 [Example 129] |
| 14 | O=C(Cn1c2c(c(=O)n3nc(-c4ccncc4)cc13)CN(Cc1ccccn1)C2=O)Nc1ccc(F)cn1 [Example 130] |
| 14 | O=C(Cn1c2c(c(=O)n3nc(-c4ccncc4)cc13)CN(Cc1cccnc1)C2=O)Nc1ccc(F)cn1 [Example 131] |
| 18 | O=C(Cn1c2c(c(=O)n3nc(-c4ccncc4)cc13)CN(CCN1CCOCC1)C2=O)Nc1ccc(F)cn1 [Example 132] |
| 22 | CC(C)N1Cc2c(n(CC(=O)Nc3ccc(F)cn3)c3cc(Cc4ccccn4)nn3c2=O)C1=O [Example 133] |

| IC50 [nM] | Compound |
| --- | --- |
| 56 | CCc1cc2n(CC(=O)Nc3ccc(F)cn3)c3c(c(=O)n2n1)CN(C(C)(C)CO)C3=O [Example 136, 2-[2-ethyl-6-(1-hydroxy-2-methylpropan-2-yl)-5,8-dioxo-5,6,7,8-tetrahydro-4H-pyrazolo[1,5-a]pyrrolo[3,4-d]pyrimidin-4-yl]-N-(5-fluoropyridin-2-yl)acetamide] |
| 36 | CC(C)N1Cc2c(n(CC(=O)Nc3ccc(F)cn3)c3cc(C4=COCC4)nn3c2=O)C1=O [Example 144, 2-[2-(4,5-dihydrofuran-3-yl)-5,8-dioxo-6-(propan-2-yl)-5,6,7,8-tetrahydro-4H-pyrazolo[1,5-a]pyrrolo[3,4-d]pyrimidin-4-yl]-N-(5-fluoropyridin-2-yl)acetamide] |
| 33 | CC(C)N1Cc2c(n(CC(=O)Nc3ccc(F)cn3)c3cc(C4=CCS(=O)(=O)CC4)nn3c2=O)C1=O [Example 145, 2-[2-(1,1-dioxo-1,2,3,6-tetrahydro-1lambda^6-thiopyran-4-yl)-5,8-dioxo-6-(propan-2-yl)-5,6,7,8-tetrahydro-4H-pyrazolo[1,5-a]pyrrolo[3,4-d]pyrimidin-4-yl]-N-(5-fluoropyridin-2-yl)acetamide] |
| 225 | N#Cc1cc2n(CC(=O)Nc3ccc(F)cn3)c3c(c(=O)n2n1)CN(CCN1CCOCC1)C3=O [Example 147] |
| 225 | COC[C@H](C)N1Cc2c(n(CC(=O)Nc3ccc(F)cn3)c3cc(C#N)nn3c2=O)C1=O [Example 148] |
| 398 | Cc1cccnc1-c1cc2n(CC(=O)Nc3ccc(F)cn3)c3c(c(=O)n2n1)CN(C(C)C)C3=O [Example 163] |
| 5 | Cc1cnc(-c2cc3n(CC(=O)Nc4ccc(F)cn4)c4c(c(=O)n3n2)CN(C(C)C)C4=O)c(C)c1 [Example 166, 2-[2-(3,5-dimethylpyridin-2-yl)-5,8-dioxo-6-(propan-2-yl)-5,6,7,8-tetrahydro-4H-pyrazolo[1,5-a]pyrrolo[3,4-d]pyrimidin-4-yl]-N-(5-fluoropyridin-2-yl)acetamide] |
| 59 | CNc1cc2n(CC(=O)Nc3ccc(F)cn3)c3c(c(=O)n2n1)CN(C(C)C)C3=O [Example 174] |
| 120 | CNc1cc2n(CC(=O)Nc3ccc(F)cn3)c3c(c(=O)n2n1)CN([C@@H](C)COC)C3=O [Example 179] |
| 135 | COc1ccccc1NC(=O)c1cc2n(CC(=O)Nc3ccc(F)cn3)c3c(c(=O)n2n1)CN(C(C)C)C3=O [Example 202] |
| 25 | CC(C)N1Cc2c(n(CC(=O)Nc3ccc(F)cn3)c3cc(C(=O)Nc4ccccc4Cl)nn3c2=O)C1=O [Example 203] |
| 36 | Cc1ccccc1NC(=O)c1cc2n(CC(=O)Nc3ccc(F)cn3)c3c(c(=O)n2n1)CN(C(C)C)C3=O [Example 204] |
| 47 | CC(C)N1Cc2c(n(CC(=O)Nc3ccc(F)cn3)c3cc(C(=O)Nc4cccc(F)c4)nn3c2=O)C1=O [Example 206] |
| 28 | CC(C)N1Cc2c(n(CC(=O)Nc3ccc(F)cn3)c3cc(C(=O)Nc4ccc(F)cc4)nn3c2=O)C1=O [Example 208] |
| 123 | CC(C)N1Cc2c(n(CC(=O)Nc3ccc(F)cn3)c3cc(C(=O)Nc4ncco4)nn3c2=O)C1=O [Example 209] |
| 28 | CC(C)N1Cc2c(n(CC(=O)Nc3ccc(F)cn3)c3cc(C(=O)Nc4ncccn4)nn3c2=O)C1=O [Example 210] |
| 26 | CC(C)N1Cc2c(n(CC(=O)Nc3ccc(F)cn3)c3cc(C(=O)Nc4ccon4)nn3c2=O)C1=O [Example 211] |
| 22 | CC(C)N1Cc2c(n(CC(=O)Nc3ccc(F)cn3)c3cc(C(=O)Nc4cccnn4)nn3c2=O)C1=O [Example 212] |
| 93 | CC(C)N1Cc2c(n(CC(=O)Nc3ccc(F)cn3)c3cc(C(=O)Nc4ccc(Cl)cn4)nn3c2=O)C1=O [Example 213] |
| 63 | COC[C@H](C)N1Cc2c(n(CC(=O)Nc3ccc(F)cn3)c3cc(C(=O)Nc4ccon4)nn3c2=O)C1=O [Example 215] |
| 70 | COC[C@H](C)N1Cc2c(n(CC(=O)Nc3ccc(F)cn3)c3cc(C(=O)Nc4ncccn4)nn3c2=O)C1=O [Example 217] |
| 180 | O=C(Cn1c2c(c(=O)n3nc(C(=O)Nc4ccccc4F)cc13)CN(C1CCOCC1)C2=O)Nc1ccc(F)cn1 [Example 219] |
| 45 | O=C(Cn1c2c(c(=O)n3nc(C(=O)Nc4ccccc4F)cc13)CN(CCN1CCOCC1)C2=O)Nc1ccc(F)cn1 [Example 220] |

Source: patent US11319324B2, “Pyrazolo-pyrrolo-pyrimidine-dione derivatives as P2X3 inhibitors” (Bayer Aktiengesellschaft, priority 2017, dated 2022)
